A melting point compilation (Tetko et al.; mined from patent text by program, amines drawn as free bases though some values may be those of a salt)

Compared with `CN(Cc1ccc(NC(=O)C2=Cc3cc(-c4ccc5c(c4)CCO5)ccc3S(=O)(=O)CC2)cc1)C1CCOCC1`, `CN1CCOc2ccc(S(=O)(=O)n3c(Cc4ccc(C(=O)O)s4)cc4cc(C(F)(F)F)ccc43)cc21` is lower in melting point: 214 to 216 °C for the first, 120 to 144 °C for the second.

First: CC(=O)N(C)c1cccc(-c2ccc(Cl)nn2)c1
Second: CC(=C1C(=O)N(c2cccc(C)c2)c2ccccc21)N(C)C
The melting point of the first is higher: 118 to 120 °C for the first, 96 to 99 °C for the second.

First: COCCNC(=O)C1CCC(Nc2ncc3ncnc(Nc4ccc(F)c(Cl)c4)c3n2)CC1 (stereo not drawn)
Second: CCSCC#Cc1cc(F)c2ncc(C(=O)NCc3ccc(Cl)cc3)c(O)c2c1
The melting point of the first is higher: 243 to 246 °C for the first, 232 to 233 °C for the second.

First: O=S1c2ccccc2-c2[nH]nc(-c3ccccc3)c21 (stereo not drawn)
Second: Cc1c(Cc2ccccc2)[nH]c2ccccc2c1=O
The melting point of the first is lower: 222 to 224 °C for the first, 285 to 287 °C for the second.

First: CCOC(=O)C1=C[C@H](c2ccc(C)cc2)[C@H](CO[Si](C)(C)C(C)(C)C)C(=O)O1
Second: CCOC(=O)c1nn2c(-c3ccc(OC)cc3)nnc2c2ccccc12
The melting point of the first is lower: 60 to 61 °C for the first, 180 to 182 °C for the second.

First: CC12C=CC(=O)C(N)=C1C=CC1C2CCC2(C)C(=O)CCC12 (stereo not drawn)
Second: Cc1cc(COc2cccc3c2CN(C2CCC(=O)NC2=O)C3=O)nn1C (stereo not drawn)
The melting point of the first is lower: 206 to 208 °C for the first, 214 to 216 °C for the second.

Compared with `O=S(=O)(c1cc(Cl)cc(Cl)c1)c1nnc(C(F)(F)F)s1`, `Clc1cc(Cl)cc(NCNc2cc(Cl)cc(Cl)c2)c1` is higher in melting point: 123 °C for the first, 153 to 156 °C for the second.

Compared with `CCCc1nc(C(C)(C)O)c(C(=O)O)n1Cc1ccc(-c2ccccc2C(=O)OC(C)(C)C)cc1`, `Cc1oc(-c2ccccc2)nc1CCOc1ccc(CC(C(=O)O)C(=O)O)cc1` is higher in melting point: 155 to 157 °C for the first, 173 to 175 °C for the second.

First: O=C(NC(CCl)CCOc1ccc(Br)cc1)c1c(F)cccc1F (stereo not drawn)
Second: O=C(Nc1cccc(Br)c1)Oc1ccc2c(c1)CCCN2
The melting point of the first is lower: 116 to 119 °C for the first, 198 °C for the second.

First: COc1cc2c(cc1OC)CCCC(C(=O)N1CCN(C(=S)c3cc(OC)c(OC)c(OC)c3)CC1)=C2
Second: COc1ccc(-c2cc(-c3ccccc3)nc(C)c2C(=O)O)cc1OC
The melting point of the first is lower: 172 to 173 °C for the first, 208 °C for the second.

Compared with `CCNc1ccc(C)c(O)c1`, `CC(=O)Nc1ccc(NCCSC#N)c([N+](=O)[O-])c1` is higher in melting point: 128 to 129 °C for the first, 168 °C for the second.

First: N#Cc1ccccc1C(F)(F)C(F)(F)c1ccc(F)cc1
Second: O=C(Nc1ccc(C(F)(F)F)cc1)c1cccc(Oc2cccc(C(F)(F)F)c2)n1
The melting point of the first is lower: 90 to 93 °C for the first, 130 to 132 °C for the second.

Compared with `O=C(O)[C@H](Cc1ccc(F)cc1)[C@@H](O)c1ccc(F)cc1` (racemic), `Cc1nc(-c2ccc(F)cc2)c(-c2ccc(S(C)(=O)=O)cc2)s1` is higher in melting point: 169 to 170 °C for the first, 229 to 233 °C for the second.

First: Cn1nc(S(N)(=O)=O)c2c(F)cccc21
Second: Cc1c(C(=O)Cl)ccc(S(C)(=O)=O)c1C1=NOCC1
The melting point of the first is higher: 221 to 223 °C for the first, 183 to 184 °C for the second.

First: COCCCNC1(c2ccccc2Cl)C(=O)N(S(=O)(=O)c2ccc3c(c2)CCN3C(=O)OC)c2ccc(Cl)cc21 (stereo not drawn)
Second: COc1cc(C(=O)NS(=O)(=O)c2ccccc2C)ccc1Cn1ccc2ccc(CC(=O)NCC3CCCC3)cc21
The melting point of the first is lower: 98 °C for the first, 187 to 188 °C for the second.

First: CCOC(=O)CCCCn1c(=O)[nH]c2ccc(O)cc2c1=O
Second: COC(=O)CCCCCCNC(=O)c1cn2c3c(cccc13)CCC2
The melting point of the first is higher: 105 to 107 °C for the first, 66 to 67 °C for the second.

First: CN1C(=O)C(c2ccc(OC(F)F)cc2)(c2cccc(OCCC=C(F)F)c2)N=C1N (stereo not drawn)
Second: COc1ccnc(C(C)Sc2nc3cc(OC(F)(F)C(F)F)ccc3[nH]2)c1 (stereo not drawn)
The melting point of the first is higher: 127 to 128 °C for the first, 78 to 81 °C for the second.

Compared with `CS(=O)c1ccc(COC(=O)N2CCN(CC3(C)Cn4cc([N+](=O)[O-])nc4O3)CC2)cc1` (stereo not drawn), `O=[N+]([O-])c1cn2c(n1)O[C@@H](COc1ccc(N3CCC(Nc4ccc(OCc5ccc(OC(F)(F)F)cc5)cc4)CC3)cc1)CC2` is higher in melting point: 117 to 121 °C for the first, 227 to 229 °C for the second.

Compared with `O=C(O)c1ccc(F)c2c1OCC=C2`, `Cc1ccc(C)c(Nc2ncc(C(=O)O)c(=O)[nH]2)c1` is higher in melting point: 187 to 189 °C for the first, 242 to 244 °C for the second.

First: N#Cc1ncc(OC2SCC(O)C(O)C2O)cc1F (stereo not drawn)
Second: N#Cc1cnc(N[C@H]2CC[C@H](O)CC2)c([N+](=O)[O-])c1
The melting point of the first is lower: 155 to 156 °C for the first, 157 to 158 °C for the second.

Compared with `CONC(=O)c1[nH]c(C)c(-c2nc3ccc(C(=O)c4ccccc4)cc3[nH]2)c1C`, `O=C(CNC(=O)C(Cc1ccccc1)CP(=O)(O)O)OCc1ccccc1` (stereo not drawn) is higher in melting point: 203 to 205 °C for the first, 250 °C for the second.

Compared with `O=C(O)CCC=C(Cl)Cl`, `NC(=O)CCCOc1ccc(C23CC4CC(CC(C4)C2)C3)cc1` is higher in melting point: 117 to 118 °C for the first, 176 to 177 °C for the second.

Compared with `COc1cc2c(cc1-c1ccccc1)CCN=C2C1(c2ccccc2Cl)CCC1`, `COc1ccccc1N1CCN(CC(Cc2ccccc2)C(=O)O)CC1` (stereo not drawn) is higher in melting point: 149 to 152 °C for the first, 155 to 158 °C for the second.

First: CN(C)c1ncc(-c2cccc(-n3cnc4cc(-n5cccc5)ccc43)c2)cn1
Second: CC(C)(O)c1cccc(-c2ccc3nc(-c4ccc(Cl)cc4)c(Cl)n3c2)c1
The melting point of the first is higher: 237 to 238 °C for the first, 172 to 173 °C for the second.

First: COc1ccc(Cn2c(=O)n(C3CCCCC3)c3cc(Cl)ccc32)c(OC)c1
Second: Cn1c(C(F)(F)F)cc(=O)n(-c2ccc(Cl)c(C3OCCCO3)c2)c1=O
The melting point of the first is higher: 112 °C for the first, 87 to 92 °C for the second.

Compared with `CCC(C)(C)NC(=S)Nc1cc(Br)cc(Br)c1`, `Cc1ccc(C(=O)NC(NC(=S)Nc2cccnc2)C(C)C)cc1` (stereo not drawn) is higher in melting point: 147 to 149 °C for the first, 184 to 186 °C for the second.

First: CC1=C(CC(=O)N(C)O)c2cc(F)ccc2/C1=C\c1ccc(S(C)=O)cc1 (stereo not drawn)
Second: COc1ccc(CCCC(=O)NC(NC(Cc2ccccc2C)=NC#N)C(C)(C)C)cc1 (stereo not drawn)
The melting point of the first is lower: 156 to 160 °C for the first, 171 to 172 °C for the second.

First: CN1C(C)(C)CC(NC(=O)c2ccc(-c3cc4cc(Cl)c(Cl)cc4[nH]3)cc2)CC1(C)C
Second: Nc1cc(Cl)c([N+](=O)[O-])cc1OC(=O)c1cccc(C(=O)Oc2cc([N+](=O)[O-])c(Cl)cc2N)c1
The melting point of the first is higher: 325 °C for the first, 129 to 130 °C for the second.

First: Cc1nc(N)nc(N)c1N1CCN(c2ccc(C(=O)NCC(=O)O)cc2)CC1
Second: CN(C)C(=O)N[C@H]1CC[C@H](CCN2CCN(c3nccc4c3CCO4)CC2)CC1
The melting point of the first is higher: over 310 °C for the first, 260 °C for the second.

First: Nc1cccc(C=CC(=O)N2CCc3c([nH]c4ccccc34)C2c2ccc3c(c2)OCO3)c1 (stereo not drawn)
Second: CCN(CC)c1ccc(N(c2ccc(N(C)C)cc2)C2(c3ccc(N(CC)CC)cc3C)OC(=O)c3ccccc32)cc1 (stereo not drawn)
The melting point of the first is higher: 139 to 141 °C for the first, 68 to 83 °C for the second.

First: CON=C(C1=NOCCO1)c1ccccc1CCl
Second: Cc1c(C)c2c(c(C)c1NC(=O)CC(C)(C)C)C(c1cccc(C=O)c1)CO2 (stereo not drawn)
The melting point of the first is lower: 93 to 96 °C for the first, 178 to 179 °C for the second.

First: CCCCCCCCCCCCCCCCCNC(=O)N(C)CC(O)C(O)C(O)C(O)CO (stereo not drawn)
Second: CCOC(=O)COc1ccc2c(C)c(CCN(CC)CC)c(=O)oc2c1Cl
The melting point of the first is lower: 94 to 96 °C for the first, 147 to 148 °C for the second.

First: CC(CNS(C)(=O)=O)Nc1nc(Cl)ncc1Cl (stereo not drawn)
Second: N#CC(c1ccc(Cl)c(Cl)c1)c1c(Cl)cc(N)cc1Cl (stereo not drawn)
The melting point of the first is lower: 160 °C for the first, 191 to 194 °C for the second.

Compared with `CC(=O)COc1ccc(CC2SC(=O)NC2=O)cc1` (stereo not drawn), `CC(C)(C)OC(=O)N1CCC(N2CCN(CCCN3CCCCC3)C2=C(C#N)C#N)CC1` is lower in melting point: 158 to 159 °C for the first, 141 to 143 °C for the second.
